From US7238213B2, “Cell-based assays employing voltage and calcium dyes” (priority 2001, dated 2007)

What was measured:
[1] = target: Gi-coupled D2 dopamine receptor (Homo sapiens, UniProt P14416); details: 300 nM, FIG. 29
DRD2 receptor = DRD2 receptor (Homo sapiens, UniProt P14416)
DRD2 receptor, sequence (P14416 whole entry): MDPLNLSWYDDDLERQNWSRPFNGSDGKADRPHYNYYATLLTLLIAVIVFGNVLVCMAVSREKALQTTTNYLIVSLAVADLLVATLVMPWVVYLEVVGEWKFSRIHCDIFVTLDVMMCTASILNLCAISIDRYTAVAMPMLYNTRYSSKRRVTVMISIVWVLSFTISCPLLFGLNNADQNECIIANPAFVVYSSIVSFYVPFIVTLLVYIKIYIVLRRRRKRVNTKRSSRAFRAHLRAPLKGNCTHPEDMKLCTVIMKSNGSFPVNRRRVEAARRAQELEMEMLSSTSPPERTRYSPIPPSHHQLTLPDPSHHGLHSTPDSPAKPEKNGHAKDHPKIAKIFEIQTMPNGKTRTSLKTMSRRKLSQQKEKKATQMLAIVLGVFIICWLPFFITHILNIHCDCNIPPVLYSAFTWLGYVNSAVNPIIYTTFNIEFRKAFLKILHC

Gi-coupled D2 dopamine receptor, sequence (P14416 whole entry): as above

calcium response [1]: does not affect calcium levels
time to maximal response (DRD2 receptor; 1 μM dopamine, 96-well, FLEXstation): about 400 seconds
time for forskolin-induced fluorescence signal to nearly return to the pre-forskolin level (DRD2 receptor; no PDE inhibitor, FIG. 28A): ≤ 7 min
Structure (SMILES): NCCc1ccc(O)c(O)c1 [dopamine]
